| SMILES | melting point [°C] |
| --- | --- |
| CC(C)c1ccccc1Nc1nc2ccccc2s1 | 115 to 116 |
| O=C(O)CSc1cccc(Br)c1 | 79 to 81 |
| O=C(O)c1ccc(S(=O)(=O)NCc2cccs2)cc1 | 232 to 234 |
| COC(=O)C(=O)CC(=O)c1ccc(F)cc1 | 125 to 135 |
| O=C1CCCCCN1CO | 63 to 67 |
| NC(CCN1CCOCC1)=NO | 159 to 161 |
| O=C(O)CN1C(=O)c2ccc(Br)cc2C1=O | 204 to 206 |
| OCCNc1ncccn1 | 76 to 78 |
| COc1cccc(C(N)=S)c1OC | 146 to 148 |
| Nc1oncc1-c1ccccc1 | 97 to 99 |
| COc1ccc(-n2ccnc2SCC(=O)O)cc1 | 125 to 127 |
| Cn1c(CC#N)nc2ccccc21 | 129 to 131 |
| CSCc1nc2ccccc2n1CC(=O)O | 221 to 225 |
| O=C1CCSc2c(Cl)cccc21 | 91 to 93 |
| Cc1cccc(NC(S)=C(C#N)c2nc3ccccc3s2)c1C | 94 to 98 |
| Ic1ccc2ncccc2c1 | 86 to 88 |
| Cn1nc(Br)c2c(NCCN)ncnc21 | 120 to 122 |
| Cc1cc(C)c(CCNC(=O)CCl)c(C)c1 | 143 to 145 |
| Nc1cc(Cl)cc2[nH]cnc12 | 89 to 91 |
| CCCNC(=O)c1cccc(O)c1 | 68 to 70 |
| CC(Oc1ccccc1C(F)(F)F)C(=O)O (configuration not stated) | 145 to 147 |
| COC(=O)c1ccc(CCC(=O)O)cc1 | 113 to 115 |
| NC(=S)N1CCSCC1 | 157 to 159 |
| CN1CCN(C(=O)CO)CC1 | 56 to 58 |
| Cc1nnnn1-c1ccc(F)c(NC(=O)CCl)c1 | 179 to 181 |

| SMILES | melting point [°C] |
| --- | --- |
| Nc1ccc(NC(=O)c2ccccc2F)cc1C(F)(F)F | 124 to 126 |
| NCc1ccc(OCCCOc2ccc(Cl)cc2Cl)cc1 | 51 to 53 |
| Nc1nc2ncccc2[nH]1 | 268 to 270 |
| O=C(O)Cc1c[nH]c2ncccc12 | 215 to 217 |
| O=C(CCl)NCC1Cc2ccccc2O1 (configuration not stated) | 94 to 96 |
| Cc1ccnn1-c1ccccn1 | 34 to 36 |
| O=C(O)c1cc(C2CC2)nc2ccccc12 | 208 to 210 |
| N#Cc1cccc(-c2ncn[nH]2)c1 | 144 to 146 |
| CCc1sc(N)c(C(N)=O)c1C | 134 to 136 |
| Cc1ccc(S(=O)(=O)NC(CCl)c2ccccc2)cc1 (configuration not stated) | 174 to 176 |
| Cc1cccc(C(C)C(=O)O)c1 (configuration not stated) | 61 to 63 |
| Cc1ccc(OCC(=O)O)c(C=O)c1 | 144 to 146 |
| O=C1COc2cc(C(=O)O)ccc2N1 | 321 to 323 |
| O=C(O)CNS(=O)(=O)c1ccccc1F | 170 to 172 |
| COc1ccc(-n2c(CCl)nc3ccccc32)cc1 | 121 to 125 |
| NC(COC1CCOCC1)=NO | 79 to 81 |
| CCn1ccc(=O)nc1S | 242 to 244 |
| C=CCn1c(S)nc2cc(Cl)ccc2c1=O | 139 to 141 |
| Cn1ncc2c(=O)n(CCC(=O)O)cnc21 | 212 to 214 |
| CN(C)C(=O)c1cccc(C#N)c1 | 87 to 89 |
| Cc1ccc(N2N=C(C(=O)O)NCC2=O)cc1 | 98 to 100 |
| Cn1c(=O)c2[nH]c(S)nc2n(C)c1=O | 328 to 330 |
| CC(=O)NC(=O)CCl | 113 to 115 |
| NC(=O)NCc1ccc([N+](=O)[O-])cc1 | 199 to 201 |
| N#Cc1cccc(C(=O)NCc2ccco2)c1 | 86 to 88 |

| SMILES | melting point [°C] |
| --- | --- |
| Cc1cc(C)nc(SCC(=O)O)n1 | 130 to 132 |
| O=C(O)c1ccc(F)c(S(=O)(=O)N2CCOCC2)c1 | 175 to 178 |
| N#Cc1[nH]c(=O)n(Cc2ccccc2)c1NCc1ccccc1 | 140 to 142 |
| CC(=O)c1nc2cc(Cl)ccc2n1C | 96 to 98 |
| O=C(O)CCc1nc2cccc(Cl)c2[nH]1 | 209 to 211 |
| CC(NO)c1ccccc1 (configuration not stated) | 73 to 75 |
| C=CCn1nnnc1S | 66 to 68 |
| Nc1ccc(Br)c2ccccc12 | 102 to 104 |
| CC(c1ccncc1)n1nccc1N (configuration not stated) | 279 to 281 |
| Cc1nc(Cl)c2cnn(-c3ccc(F)cc3)c2n1 | 114 to 116 |
| CC(Cl)C(=O)NC(C)c1ccccc1 (configuration not stated) | 89 to 91 |
| O=C(O)CN1Cc2ccccc2C1 | 209 to 211 |
| O=C(O)C1(O)CCCCC1 | 102 to 104 |
| CN(C)Cc1ccc(C(=O)O)cc1 | 239 to 241 |
| Cc1cnc(=S)[nH]c1 | 239 to 241 |
| COc1cc(CCc2cc(N)n[nH]2)cc(OC)c1 | 107 to 109 |
| O=C1CCc2cc(Cl)ccc2N1 | 162 to 164 |
| O=C(O)c1cnn2cccnc12 | 203 to 205 |
| Cc1c(C(=O)O)sc2nnc(S)n12 | 275 to 277 |
| Cc1cccc2c(=O)n(CCC(=O)O)cnc12 | 199 to 201 |
| N#Cc1cnn(CCO)c1N | 156 to 158 |
| CCN(CC)c1ccc(S(=O)(=O)N2CCOCC2)cc1N | 99 to 101 |
| O=C(O)c1cc(Br)sc1Br | 179 to 181 |
| [N-]=[N+]=NS(=O)(=O)c1cccc2c1N=S=N2 | 118 to 120 |
| COc1ccc(C(N)=NO)cn1 | 162 to 164 |

| SMILES | melting point [°C] |
| --- | --- |
| N#Cc1cc(S(=O)(=O)Cl)ccc1Cl | 49 to 51 |
| COc1cc(-c2ccccc2)ccc1C=O | 91 to 93 |
| [N-]=[N+]=Nc1cccc2ncccc12 | 61 to 63 |
| Nc1nnc(N)s1 | 192 to 194 |
| Sc1nnc(-c2ccccc2)c(-c2ccccc2)n1 | 222 to 224 |
| O=C1CN=C(S)N1c1ccccc1 | 253 to 255 |
| CCc1cc(Cl)n2c(nc3ccccc32)c1C#N | 175 to 177 |
| CCN1CCN(c2ccc(C#N)cn2)CC1 | 69 to 71 |
| COc1ccc(Sc2nsc(N)n2)cc1 | 138 to 140 |
| O=C(Nc1cocn1)OCC(F)(F)F | 131 to 133 |
| Nc1c(C(=O)O)nnc2ccccc12 | 257 to 259 |
| NS(=O)(=O)c1ccc(C(=O)O)o1 | 212 to 214 |
| COc1ccccc1OCCBr | 39 to 41 |
| Cc1nn(-c2ccc(F)cc2)nc1C(=O)O | 167 to 169 |
| O=C(CCl)Nc1ccc(Oc2cccc(Cl)c2)cc1 | 117 to 119 |
| O=C1C(Br)CCN1c1ccc(Cl)cc1 (configuration not stated) | 83 to 85 |
| Nc1nc(CN2CCCCC2)cs1 | 153 to 155 |
| O=C(O)c1cc2c(s1)CCC2 | 199 to 201 |
| NS(=O)(=O)c1ccc(S(=O)(=O)Cl)c(F)c1 | 111 to 113 |
| CC(C)C(Br)C(=O)NC1CCCC1 (configuration not stated) | 99 to 101 |
| Nc1nc2cc(Br)ccc2o1 | 172 to 174 |
| Sc1nnc(-c2ccc3ccccc3c2)o1 | 226 to 228 |
| NC(C(=O)O)(c1cccc(Cl)c1)C(F)(F)F (configuration not stated) | 109 to 111 |
| Cc1oc(-c2cccs2)nc1C(=O)O | 196 to 198 |
| CNC(=O)COc1ccc(C(=O)O)cc1OC | 221 to 223 |

| SMILES | melting point [°C] |
| --- | --- |
| COc1ccccc1NC(=O)c1ccccc1NC(=O)CCC(=O)O | 127 to 129 |
| O=C(O)C(CO)NS(=O)(=O)c1ccc(Br)cc1 (configuration not stated) | 239 to 241 |
| O=C(O)CSc1nnc(-c2ccc(F)cc2)n1CC1CCCO1 (configuration not stated) | 131 to 133 |
| CC(C)CC1CC(=O)NC(=O)C1 | 136 to 138 |
| CCOc1cc(C=O)cc(Cl)c1OC | 55 to 57 |
| COC(=O)c1csc(Br)c1 | 37 to 39 |
| CCc1cccc2c(CCN)c[nH]c12 | 91 to 93 |
| Cc1ccc(C2(C)NC(=O)NC2=O)cc1 (configuration not stated) | 207 to 209 |
| CC(C)Oc1ccc(S(=O)(=O)N2CCOCC2)cc1N | 149 to 151 |
| COc1ccc2c(c1)c(C(=O)O)c(C)n2Cc1ccccc1 | 209 to 211 |
| COC(=O)c1ccc(N)c(OCC(F)(F)F)c1 | 117 to 119 |
| O=C(O)c1cccnc1Nc1ccccc1F | 215 to 217 |
| Nc1ccc(-c2ccccn2)cn1 | 89 to 91 |
| COC(=O)c1sc(-c2cccc(Cl)c2)cc1N | 100 to 102 |
| O=C(c1ccc(Cl)c(Cl)c1)N1CCNCC1 | 74 to 76 |
| COc1cc(C=NO)ccc1OC(F)F | 57 to 59 |
| O=C(CCc1ccccc1)NC1CCN(C(=O)CCl)CC1 | 144 to 146 |
| Nc1ccnn1Cc1c(Cl)cccc1Cl | 127 to 129 |
| CC(C)(C)OC(=O)Nc1cc2c(cc1N)OCO2 | 93 to 95 |
| COc1ccc(C=C2CCCc3c2nc2ccccc2c3C(=O)O)cc1 | 157 to 159 |
| O=C(CCl)Nc1cc(-n2cnnn2)ccc1Cl | 179 to 181 |
| C1Cc2nn[nH]c2CN1 | 154 to 156 |
| CCOc1cc(C=O)cc(Br)c1OC(F)F | 94 to 96 |
| CS(=O)(=O)Nc1ccc(Cl)cc1C(=O)O | 199 to 201 |
| O=c1[nH]cc(N2CCOCC2)c(=O)[nH]1 | 304 to 306 |

| SMILES | melting point [°C] |
| --- | --- |
| CC(=O)Nc1ccc(C(=O)C(C)Cl)cc1 (configuration not stated) | 190 to 193 |
| O=C(O)CCc1c(-c2ccc(F)cc2)[nH]c2ccccc12 | 114 to 121 |
| O=C(O)c1cn(-c2ccccc2)nc1-c1ccc(Cl)cc1 | 246 to 248 |
| CC(C)(C)OC(=O)N1CC2CCC(O)C2C1 (configuration not stated) | 61 to 63 |
| O=C(O)Cn1nnc2ccccc21 | 210 to 212 |
| CCN(CC)S(=O)(=O)CC(=O)O | 59 to 61 |
| Fc1ccc(Nc2nnc(S)s2)cc1 | 185 to 187 |
| Cc1c[nH]c(=O)n1-c1ccccc1Cl | 199 to 201 |
| O=C(O)C=Cc1ccc(S(=O)(=O)Nc2cccc(C(F)(F)F)c2)cc1 | 224 to 226 |
| Cc1ccc(SCCC(=O)O)cc1C | 35 to 37 |
| NC(=O)c1cc(-c2cccs2)on1 | 190 to 192 |
| O=S(=O)(Cl)c1c(Cl)cccc1C(F)(F)F | 36 to 38 |
| N#Cc1ccc2nc(N)ncc2c1 | 344 to 346 |
| N#Cc1c(S)nc2c(c1-c1ccco1)CCC2 | 279 to 281 |
| CC(C)(C)OC(=O)N1CC(O)CC1C(=O)O (configuration not stated) | 145 to 147 |
| c1cc2[nH]ccc2cn1 | 107 to 109 |
| CC(=O)c1ccc(Cl)c(Cl)c1O | 108 to 110 |
| CNC(=O)c1cccc(C#N)c1 | 140 to 142 |
| Cc1cc(C)cc(C(=O)N2CCCC(C(=O)O)C2)c1 (configuration not stated) | 188 to 190 |
| CN1CCN(c2nccc(Cl)n2)CC1 | 94 to 96 |
| O=C(O)c1cc(I)c(F)cc1F | 163 to 165 |
| COc1cc(CN)ccc1OCCO | 113 to 115 |
